Results published in patent US20240041911A1, “USE OF CLADRIBINE FOR TREATING IMMUNE BRAIN DISEASE” (CHORD THERAPEUTICS SA, priority 2020, published 2024).

Key:
[1] = Treatment of a person suffering from autoimmune-mediated limbic encephalitis (single-patient case, anti-NMDAR encephalitis)
[2] = multiple sclerosis patients; cited from earlier work

## NC(=O)N1c2ccccc2C=Cc2ccccc21 [carbamazepine]
[1]; before cladribine
  response of generalized tonic-clonic repetitive seizures to anticonvulsants: did not respond

## Nc1nc(Cl)nc2c1ncn2[C@H]1C[C@H](O)[C@@H](CO)O1 [cladribine, 2-chloro-2′-deoxyadenosine]
[2]
  time at which therapeutic effect on MS is evident: three months after treatment
[1]; after a relatively short period of treatment
  period of beneficial effects on the disease without need for frequent retreatment: over 10 months to two years
[1]; after recovery following cladribine, able to perform all usual activities
  disability reported by patient: no significant disability
[1]; follow up of 2 years, 5 more maintenance courses (20 mg over 2 consecutive days) with 2 months intervals
  recurrence of disease: did not show any recurrence of disease
[1]; over subsequent 4 weeks after the first 3 weeks following cladribine
  neurological condition: returned to normal neurological condition
[1]; patient with refractory autoimmune encephalitis
  onset of effect on severe symptoms: rapid effect
[1]; remaining after recovery following cladribine
  neurological sequel: parasomnia and complete loss of memory covering the entire hospitalization period

## O=C1CN=C(c2ccccc2Cl)c2cc([N+](=O)[O-])ccc2N1 [clonazepam]
[1]; before cladribine
  response of generalized tonic-clonic repetitive seizures to anticonvulsants: did not respond

## O=C(CCCN1CCC(O)(c2ccc(Cl)cc2)CC1)c1ccc(F)cc1 [haloperidol]
[1]; during entire stay in the psychiatric ward, before cladribine
  psychiatric condition under standard antipsychotic treatment: without any improvement

## O=C1NC(=O)C(c2ccccc2)(c2ccccc2)N1 [phenytoin]
[1]; before cladribine
  response of generalized tonic-clonic repetitive seizures to anticonvulsants: did not respond

## CCCC(CCC)C(=O)[O-].[Na+] [sodium valproate]
[1]; before cladribine
  response of generalized tonic-clonic repetitive seizures to anticonvulsants: did not respond
